Structures can show the parent of a compound that is named as a salt. Where two headings read alike, the source gives them in different places.
Key:
mice [1] = test: Motor activity in mice (activity meters with photoelectric cells); format: in vivo; settings: comparison of isomers; 32 mg/kg orally; in particular stimulant action
Procedure: The motor activity was determined with the aid of activity meters having photoelectric cells (Boissier and Simon, Arch. int. Pharmacodyn. 1965, 158, 212-221). A minimum of 10 animals was always used per batch.
The mice are placed in the activity meter just after the oral or intraperitoneal administration of the product acccording to the invention, obtained in accordance with Example I. The motor activity is measured as from the introduction into the activity meter up to the 60th minute. The counters are read after 30 minutes, then reset to 0 and read every 10 minutes for 30 minutes.

rats [2] = test: Influence of alpha-methyltyrosine on the stereotypies caused in rats; format: in vivo; settings: alpha-methyltyrosine 64 mg.kg^-1 i.p. 150 min before Example III 8 mg.kg^-1 i.p.
Procedure: (§1) The tests were carried out on batches of 6 rats for each dose; immediately after the oral or intraperitoneal administration, the animals are placed in individual, transparent plastic 20×10×10 cm boxes provided with a pierced stainless steel lid. The stereotyped movements are rated from 0 to 3, in accordance with the method described by Simon and Chermat (J. Pharmacol. (Paris), 1972, 3, 235-238) every 10 minutes until they disappear in all the animals. The detailed curves are plotted and the surface area of the curve is calculated as described in the above reference.
(b) Influence of alpha-methyltyrosine
At time 0, the animals receive, by intraperitoneal administration, either distilled water or alphamethyltyrosine at a dose of 64 mg.kg^-1; after 150 minutes, they receive, by intraperitoneal administration, the medicament according to the invention, obtained in accordance with Example III, at a dose of 8 mg.kg^-1.
The animals are observed under the conditions described above in the study of the stereotypies in rats.

rats [3] = test: Influence of pimozide on the stereotypies caused in rats; format: in vivo; settings: pimozide 1 mg.kg^-1 i.p. 30 min before Example III 8 mg.kg^-1 i.p.
Procedure: as §1
Research into the antagonistic effects of the stereotypies caused in rats by the medicament according to the invention
(a) Influence of pimozide
At time 0, pimozide (1 mg.kg^-1) or distilled water is administered intraperitoneally; after 30 minutes, all the animals receive, by intraperitoneal administration, the medicament according to the invention, obtained in accordance with Example III (8 mg.kg^-1). The stereotypies are assessed as described above. The surface area of the curve of the stereotypies is calculated.

mice [4] = test: Anti-reserpine activity in mice (reserpine hypothermia); format: in vivo; settings: Table IIb, reserpine 2.5 mg.kg^-1 i.p. 4 h before
Procedure: Anti-reserpine activity in mice
At time 0, the mice receive reserpine (2.5 mg.kg^-1) by intraperitoneal administration.
After 4 hours, when the hypothermia is significant (30 to 31°C.), the substance to be studied is administered intraperitoneally or orally. The rectal temperature is measured, using a probe, carrying a thermoelectric couple, inserted to a constant depth, every 30 minutes for 2 hours.

mice [5] = test: Action on the toxicity of yohimbine to mice; format: in vivo; settings: yohimbine hydrochloride 25 mg.kg^-1 s.c.
Procedure: Action on the toxicity of yohimbine to mice
At time 0, the mice receive, by oral administration, either distilled water or the medicament according to the invention; after 30 minutes, yohimbine hydrochloride (25 mg.kg^-1) is administered subcutaneously to the mice. The mortality is followed every hour for 4 hours and then recorded after 24 hours.

[6] = Determination of the acute toxicity to mice (BEHRENS and KARBER); settings: mouse, in vivo
Procedure: All the experiments reported below were carried out on male rats having a weight of between 170 and 220 g (Wistar AF strain) and male mice having a weight of between 18 and 23 g (Swiss NMRI strain), unless otherwise stated in the following text.
Determination of the acute toxicity to mice
Method used: BEHRENS and KARBER

mice [7] = test: Anti-oxotremorine activity in mice (hypothermia induced by oxotremorine); format: in vivo; settings: at the doses studied, oral or intraperitoneal
Procedure: Anti-oxotremorine activity in mice
At time 0, the mice receive oxotremorine (0.5 mg.kg^-1) by intraperitoneal administration; after 30 minutes, either distilled water or the medicament according to the invention, obtained in accordance with Example I, is administered to the mice intraperitoneally or orally.
The mice are then observed and the trembling is rated from 0 to 3 as a function of its intensity, every 10 minutes for 30 minutes. Moreover, the existence of peripheral symptoms (tears, hypersialosis and defections) is observed for 2 hours, in the presence or absence of trembling. The rectal temperature is measured every 30 minutes for 2 hours, after administration of oxotremorine.

rats [8] = test: Study of the stereotypies in rats; format: in vivo; settings: rats
Procedure: Study of the stereotypies in rats
as §1

CC1CC(c2ccc(Cl)cc2)C(c2ccccc2)C(=O)O1 (stereo not drawn) [100% of β, Trans-4-(4'-chlorophenyl)-6-methyl-3phenyl-3,4,5,6-tetrahydropyrone-2, IIIβ]
activity compared with the mixture of 80 % of α and 20 % of β (mice [1]): more active

C[C@](N)(Cc1ccc(O)cc1)C(=O)O [alpha-methyltyrosine, reference compound]
effect of pre-treatment with alpha-methyltyrosine on the stereotypies caused by the medicament (rats [2]): virtually unmodified

O=c1[nH]c2ccccc2n1C1CCN(CCCC(c2ccc(F)cc2)c2ccc(F)cc2)CC1 [pimozide, reference compound]
effect of pimozide on the stereotypies caused by the medicament (rats [3]): very significantly antagonizes the stereotypies

CC(O)CC(c1ccc(Cl)cc1)C(C(=O)O)c1ccccc1 (centres unmarked) [product IV, sodium salt of 3-(4'-chlorophenyl)-5-hydroxy-2-phenylhexanoic acid]
Rectal temperatures °C. ± SD (mice [4]; 8 mg/kg oral, 30 min): 30.9 ± 0.36 °C | Rectal temperatures °C. ± SD (mice [4]; 8 mg/kg oral, 60 min): 32.0 ± 0.56 °C | Rectal temperatures °C. ± SD (mice [4]; 8 mg/kg oral, 90 min): 32.2 ± 0.57 °C | Rectal temperatures °C. ± SD (mice [4]; 8 mg/kg oral, 120 min): 33.2 ± 0.56 °C | Rectal temperatures °C. ± SD (mice [4]; 16 mg/kg oral, 30 min): 31.1 ± 0.39 °C | Rectal temperatures °C. ± SD (mice [4]; 16 mg/kg oral, 60 min): 32.5 ± 0.60 °C | Rectal temperatures °C. ± SD (mice [4]; 16 mg/kg oral, 90 min): 32.7 ± 0.51 °C | Rectal temperatures °C. ± SD (mice [4]; 16 mg/kg oral, 120 min): 33.1 ± 0.43 °C | Rectal temperatures °C. ± SD (mice [4]; 32 mg/kg oral, 30 min): 31.3 ± 0.31 °C | Rectal temperatures °C. ± SD (mice [4]; 32 mg/kg oral, 60 min): 33.0 ± 0.44 °C | Rectal temperatures °C. ± SD (mice [4]; 32 mg/kg oral, 90 min): 33.7 ± 0.41 °C | Rectal temperatures °C. ± SD (mice [4]; 32 mg/kg oral, 120 min): 33.2 ± 0.38 °C | Rectal temperatures °C. ± SD (mice [4]; 64 mg/kg oral, 30 min): 32.8 ± 0.40 °C | Rectal temperatures °C. ± SD (mice [4]; 64 mg/kg oral, 60 min): 34.3 ± 0.32 °C | Rectal temperatures °C. ± SD (mice [4]; 64 mg/kg oral, 90 min): 34.5 ± 0.38 °C | Rectal temperatures °C. ± SD (mice [4]; 64 mg/kg oral, 120 min): 34.4 ± 0.41 °C | Mortality in % after the administration of yohimbine (mice [5]; Table Vb, 2 mg/kg administered orally, 4 hours): 10% | Mortality in % after the administration of yohimbine (mice [5]; Table Vb, 2 mg/kg administered orally, 24 hours): 10% | Mortality in % after the administration of yohimbine (mice [5]; Table Vb, 4 mg/kg administered orally, 4 hours): 20% | Mortality in % after the administration of yohimbine (mice [5]; Table Vb, 4 mg/kg administered orally, 24 hours): 20% | Mortality in % after the administration of yohimbine (mice [5]; Table Vb, 8 mg/kg administered orally, 4 hours): 30% | Mortality in % after the administration of yohimbine (mice [5]; Table Vb, 8 mg/kg administered orally, 24 hours): 30% | Mortality in % after the administration of yohimbine (mice [5]; Table Vb, 16 mg/kg administered orally, 4 hours): 70% | Mortality in % after the administration of yohimbine (mice [5]; Table Vb, 16 mg/kg administered orally, 24 hours): 70% | Mortality in % after the administration of yohimbine (mice [5]; Table Vb, 32 mg/kg administered orally, 4 hours): 80% | Mortality in % after the administration of yohimbine (mice [5]; Table Vb, 32 mg/kg administered orally, 24 hours): 80% | Mortality in % after the administration of yohimbine (mice [5]; Table Vb, 64 mg/kg administered orally, 4 hours): 100% | Mortality in % after the administration of yohimbine (mice [5]; Table Vb, 64 mg/kg administered orally, 24 hours): 100% | Mortality in % after the administration of yohimbine (mice [5]; Table Vb, 128 mg/kg administered orally, 4 hours): 80% | Mortality in % after the administration of yohimbine (mice [5]; Table Vb, 128 mg/kg administered orally, 24 hours): 80% | Mortality in % after the administration of yohimbine (mice [5]; Table Vb, 256 mg/kg administered orally, 4 hours): 100% | Mortality in % after the administration of yohimbine (mice [5]; Table Vb, 256 mg/kg administered orally, 24 hours): 100% | LD50 ([6]; ip, intraperitoneal, read-out: LD50 (intraperitoneal administration)): 160 mg/kg | LD50 ([6]; oral, read-out: LD50 (oral administration)): 310 mg/kg

Threo-2-(4'-chlorophenyl)-4-hydroxy-1-phenylpentanecarbonitrile [Example II]
trembling and peripheral symptoms caused by oxotremorine (mice [7]): did not cause any modification | Mortality in % after the administration of yohimbine (mice [5]; Table Va, 2 mg/kg oral, 4 hours): 0% | Mortality in % after the administration of yohimbine (mice [5]; Table Va, 2 mg/kg oral, 24 hours): 0% | Mortality in % after the administration of yohimbine (mice [5]; Table Va, 4 mg/kg oral, 4 hours): 0% | Mortality in % after the administration of yohimbine (mice [5]; Table Va, 4 mg/kg oral, 24 hours): 0% | Mortality in % after the administration of yohimbine (mice [5]; Table Va, 8 mg/kg oral, 4 hours): 10% | Mortality in % after the administration of yohimbine (mice [5]; Table Va, 8 mg/kg oral, 24 hours): 10% | Mortality in % after the administration of yohimbine (mice [5]; Table Va, 16 mg/kg oral, 4 hours): 20% | Mortality in % after the administration of yohimbine (mice [5]; Table Va, 16 mg/kg oral, 24 hours): 20% | Mortality in % after the administration of yohimbine (mice [5]; Table Va, 32 mg/kg oral, 4 hours): 25% | Mortality in % after the administration of yohimbine (mice [5]; Table Va, 32 mg/kg oral, 24 hours): 25% | Mortality in % after the administration of yohimbine (mice [5]; Table Va, 64 mg/kg oral, 4 hours): 30% | Mortality in % after the administration of yohimbine (mice [5]; Table Va, 64 mg/kg oral, 24 hours): 30% | Mortality in % after the administration of yohimbine (mice [5]; Table Va, 128 mg/kg oral, 4 hours): 60% | Mortality in % after the administration of yohimbine (mice [5]; Table Va, 128 mg/kg oral, 24 hours): 60% | Mortality in % after the administration of yohimbine (mice [5]; Table Va, 256 mg/kg oral, 4 hours): 70% | Mortality in % after the administration of yohimbine (mice [5]; Table Va, 256 mg/kg oral, 24 hours): 70% | stereotypy activity, oral versus intraperitoneal administration (rats [8]; figure): slightly greater on oral administration | dose from which very significant stereotypies are present (rats [8]; mean surface area of the curve (figure)): ≥ 8 mg/kg
